{
  "source": "patent US20100068203A1",
  "about": "“17-Oxymacbecin Derivatives and Their Use in the Treatment of Cancer and/or B-Cell Malignancies” (priority 2006, published 2010)",
  "origin": "cited, not measured here",
  "key": {"Hsp90": {"biological_target": "Hsp90 (Homo sapiens, UniProt P07900)"}, "SKBr3": {"system": "SKBr3", "conditions": "compared with geldanamycin and 17-AAG"}, "bacteria and fungi": {"system": "bacteria and fungi", "conditions": "in vitro"}, "[1]": {"biological_target": "terminal deoxynucleotidyl transferase (Homo sapiens, UniProt P04053)", "sequence (P04053 whole entry, species assumed)": "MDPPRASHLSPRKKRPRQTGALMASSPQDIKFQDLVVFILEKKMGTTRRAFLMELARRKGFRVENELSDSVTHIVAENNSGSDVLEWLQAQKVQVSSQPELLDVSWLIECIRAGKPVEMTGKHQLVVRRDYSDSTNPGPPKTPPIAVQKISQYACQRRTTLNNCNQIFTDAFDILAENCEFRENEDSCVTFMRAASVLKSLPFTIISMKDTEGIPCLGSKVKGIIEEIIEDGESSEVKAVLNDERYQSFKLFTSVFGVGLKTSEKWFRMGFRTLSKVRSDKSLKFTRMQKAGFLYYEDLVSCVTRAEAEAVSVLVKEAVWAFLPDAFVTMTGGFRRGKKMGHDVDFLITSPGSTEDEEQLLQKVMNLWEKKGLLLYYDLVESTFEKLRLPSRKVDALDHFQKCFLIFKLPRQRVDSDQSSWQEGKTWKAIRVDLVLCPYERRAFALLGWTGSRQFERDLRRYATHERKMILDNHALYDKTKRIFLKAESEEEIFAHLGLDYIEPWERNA"}},
  "data": [
    {"smiles": "CO[C@H]1C[C@H](C)Cc2cc(O)cc(c2)NC(=O)/C=C/CC[C@H](OC)[C@@H](OC(N)=O)/C(C)=C/[C@H](C)[C@H]1O", "note": "[KOSN1559]", "values": [
      {"measurement": "binding affinity to Hsp90, greater than 17-AAG", "setting": "Hsp90; relative to 17-AAG", "value": 8, "unit": "fold"},
      {"measurement": "binding affinity to Hsp90, greater than geldanamycin", "setting": "Hsp90; relative to geldanamycin", "value": 4, "unit": "fold"},
      {"measurement": "IC50 measurement using SKBr3", "setting": "SKBr3", "value": "not reflected in an improvement"}
    ]},
    {"smiles": "COC1=C2C[C@@H](C)C[C@H](OC)[C@H](O)[C@@H](C)/C=C(\\C)[C@H](OC(N)=O)[C@@H](OC)/C=C\\C=C(/C)C(=O)NC(=CC1=O)C2=O", "note": "[geldanamycin]", "values": [
      {"measurement": "activity in vitro against protozoa", "setting": "protozoa", "value": "strong activity"},
      {"measurement": "activity against bacteria and fungi", "setting": "bacteria and fungi", "value": "weak activity"}
    ]},
    {"smiles": "CO[C@H]1[C@@H](OC)C[C@H](C)[C@@H](OC)C2=CC(=O)C=C(NC(=O)/C(C)=C/C=C\\[C@H](C)[C@@H](OC(N)=O)/C(C)=C/[C@@H]1C)C2=O", "note": "[macbecin]", "values": [
      {"measurement": "Reverse transcriptase activity inhibition", "setting": "Reverse transcriptase", "value": "not inhibited"},
      {"measurement": "terminal deoxynucleotidyl transferase activity inhibition", "setting": "[1]", "value": "not inhibited"}
    ]}
  ]
}
